Read-outs that look alike come from different tables or passages of the source.
Tests used:
[1] = human, microsomes, 0 h, 1 μM, pH 7.4
[2] = Mass balance study in rats via oral administration; settings: rat, feces
[3] = Blood/plasma partitional ratio, rat blood; assay type: in vitro ADME; settings: fresh pooled whole blood with heparin, rat whole blood, 37°C, read-out: blood/plasma partitioning (R b/P)
Procedure: The blood/plasma partitional ratio (R b/p) in rat and human blood was measured in vitro using fresh pooled blood including heparin. Whole blood was preincubated at 37°C in a water bath, and spiked with YL-IPA08 at 1 µM. The blood samples were incubated at 37°C for 1 h. After incubation, aliquots of 25 µl spiked whole blood were removed, and the remaining blood was centrifuged at 2,000 × g for 10 min, after which 25 µl aliquots of plasma were removed. Obtained blood and plasma samples were spiked with same volume of blank plasma or blood, respectively, and then immediately precipitated by adding 4× volumes of acetonitrile containing IS to get the same matrix. The concentrations of YL-IPA08 in blood and plasma were determined by LC-MS/MS.

[4] = Aqueous solubility / BCS class; assay type: physicochemical
[5] = Pharmacokinetics in portal and jugular vein double cannulated rats; settings: double cannulation rat model, if F a is 100%
Procedure: The surgical procedure for portal vein catheter insertion was performed according to reference ([Matsuda et al., 2012]). Male SD rats (250–280 g) were purchased from Beijing Vital River Laboratory Animal Technology Co., Ltd. (Beijing, China). Rats were anesthetized with 2% pentobarbital sodium (0.2–0.3 mg/100 g) intraperitoneally dosed. Cannulation into the jugular vein was performed by the method of Murakami reported ([Murakami et al., 2003]) with minor modification. Briefly, an incision of ∼0.5 cm near right clavicle was made and the jugular vein was exposed. Next, this vein was cannulated with ∼12.5 cm of silicone gel tubing (0.6 mm I.D. × 0.9 mm O.D., Skillsmodel Inc., Beijing, China). The other side of the tubing was passed through the back skin. 2.5 cm midline incision was made in the abdominal cavity close to ensiform process and the portal vein was detached. To prevent bleeding, the portal vein was ligated temporarily as the catheter was inserted. The silicone tubing (22 cm, 0.6 mm I.D. × 0.9 mm O.D., Skillsmodel Inc., Beijing, China) was inserted immediately and fixed by a purse-string suture on the portal vein. The time to reperfusion was about 1 min after intercepted blood flow. In addition, a catheter with trumpet-shaped opening was used to prevent the catheter from slipping out of the vessel and minimize the effect on blood flow. Another end of the catheter was passed subcutaneously to the skin close to the scapula.
Blood samples were collected at 0, 0.083, 0.25, 0.5, 1, 2, 4, 6, 8 and 12 h. Blood (approximately 100 µl) was collected from the jugular and portal veins into tubes containing heparin on ice and centrifuged within 1 h of collection. Plasma was harvested and stored at −20°C for bioanalysis.
FaFg was calculated using mass balance method and rat portal blood flow (Qpv) of 32 ml/min/kg, where Rb/p is used to convert plasma concentrations to blood concentrations.

[6] = Bioavailability study in rats (i.v. and p.o.); assay type: in vivo; settings: male, rat, plasma; for MRT last: read-out: MRT(0–t)
Procedure: Male SD rats (200-240 g) were obtained from Beijing Vital River Laboratory Animal Technology Co., Ltd. Animals were housed in a temperature- and humidity-controlled room with a 12 h light/dark cycle. They were fasted 12 h before the experiments and had ad libitum access to water. The animal experiments were conducted in the Beijing Center for Drug Safety Evaluation and according to a protocol (IACUC-DWZX-2020-691) approved by the Institutional Animal Care and Use Committee of the Center, which followed the guidelines of the Association for Assessment and Accreditation of Laboratory Animal Care International (AAALAC). […] Pharmacokinetic parameters were calculated by the noncompartmental method using WinNonlin 7.0 (Pharsight, CA). The area under the plasma concentration time curve (AUC) from time 0 to the last time point with a measurable concentration (AUC0-t) was calculated by trapezoidal method. Bioavailability (%F) was calculated as the ratio of the mean dose-normalized AUC values for oral and intravenous dosed groups [Fp.o. = […].)]. In vivo plasma clearance and volume of distribution were archived from the pharmacokinetic study via i.v. injection.

[7] = in vitro; assay type: in vitro ADME; settings: human, microsomes
Procedure: The fraction of unbound YL-IPA08 in plasma and liver microsomes of rat and human, and brain homogenates of rat were determined utilizing Rapid Equilibrium Dialysis method ([Waters et al., 2008]). Rat brain homogenate was harvested in 4-fold volume (w/v) of PBS (pH 7.4). YL-IPA08 were spiked into fresh plasma, rat brain homogenate, liver microsomes (0.2 mg/ml protein) at concentration of 1 µM, and then dialyzed against biomatrices on a shaker at 37°C for 4 h. To avoid the high non-specific binding of YL-IPA08, 0.01% Tween 80 was added in the incubation mixture. At the end of the incubation, protein was precipitated with acetonitrile (containing IS) and analyzed by LC-MS/MS. Phenacetin, quinidine, and warfarin were selected as positive control for the protein binding test.
The unbound fraction of YL-IPA08 in plasma or liver microsomes (ƒu,x) was calculated as shown in Eq. 2, and unbound fraction in the tissue homogenate (ƒu,b) was calculated according to Eq. 3. fu,x = Concbuffer chamber/Concplasma/liver microsomes chamber (2) fu,b = Concbuffer chamber/Concbrain homogenate chamber (3) The measured unbound fractions would be higher when a tissue is homogenized and diluted in buffer, the unbound fractions in an undiluted tissues (ƒu,brain) were calculated using Eq. 4 ([Kalvass and Maurer, 2002]). […]

In the case of `CCN(Cc1ccccn1)C(=O)Cc1c(-c2ccc(Cl)c(Cl)c2)nc2cc(C)ccn12` [YL-IPA08], the percent of remaining [1] is reported as 100.00%, the dose excreted [2] is reported as 0.004% and the blood plasma ratio at 1 h, 1 µM [3] is reported as 1.12 ± 0.08. For the same compound, the “aqueous solubility (in words)” value [4] was “high aqueous solubility”, the BCS class ([4]; from high aqueous solubility and high permeability) was “BCS class I” and the “extraction of gut metabolism” value [5] was 78%. The AUC(0-inf) ([6]; SD, iv, i.v. 0.3 mg/kg) was 71.3 ± 12.3 ng·h/mL, the AUC(0-t) ([6]; SD, iv, i.v. 0.3 mg/kg) was 70.6 ± 12.2 ng·h/mL and the clearance ([6]; SD, iv, i.v. 0.3 mg/kg) was 71.7 ± 11.5 mL/min/kg. It also gave a half-life ([6]; SD, iv, i.v. 0.3 mg/kg) of 1.13 ± 0.07 h, a concentration at 0.033 h ([6]; SD, iv, i.v. 0.3 mg/kg, 0.033 h) of 220 ± 32.5 ng/mL and a concentration at 0.083 h ([6]; SD, iv, i.v. 0.3 mg/kg) of 140 ± 36.2 ng/mL. The concentration at 0.25 h ([6]; SD, iv, i.v. 0.3 mg/kg) was 38.9 ± 5.41 ng/mL, the concentration at 0.5 h ([6]; SD, iv, i.v. 0.3 mg/kg) was 18.2 ± 1.29 ng/mL and the concentration at 1 h ([6]; SD, iv, i.v. 0.3 mg/kg) was 8.44 ± 1.06 ng/mL. The concentration at 2 h ([6]; SD, iv, i.v. 0.3 mg/kg) was 4.3 ± 0.57 ng/mL, the concentration at 4 h ([6]; SD, iv, i.v. 0.3 mg/kg) was 1.84 ± 0.39 ng/mL and the concentration at 6 h ([6]; SD, iv, i.v. 0.3 mg/kg) was 1.09 ± 0.22 ng/mL. The concentration at 8 h ([6]; SD, iv, i.v. 0.3 mg/kg) was 0.81 ± 0.08 ng/mL, the concentration at 12 h ([6]; SD, iv, i.v. 0.3 mg/kg) was 0.48 ± 0.06 ng/mL and the MRT last ([6]; SD, iv, i.v. 0.3 mg/kg) was 1.36 ± 0.11 h. The Vd ([6]; SD, iv, i.v. 0.3 mg/kg, read-out: Vz) was 6.98 ± 0.74 L/kg, the AUC(0-inf) ([6]; SD, po, p.o. 1 mg/kg) was 13.6 ± 4.37 ng·h/mL and the AUC(0-t) ([6]; SD, po, p.o. 1 mg/kg) was 12.5 ± 3.88 ng·h/mL. It also gave a Cmax ([6]; SD, po, p.o. 1 mg/kg) of 5.99 ± 1.36 ng/mL, a Tmax ([6]; SD, po, p.o. 1 mg/kg) of 3 ± 1.8 min and a half-life ([6]; SD, po, p.o. 1 mg/kg) of 1.66 ± 0.68 h. The concentration at 0.083 h ([6]; SD, po, p.o. 1 mg/kg) was 5.43 ± 1.96 ng/mL, the concentration at 0.25 h ([6]; SD, po, p.o. 1 mg/kg) was 5.22 ± 0.65 ng/mL and the concentration at 0.5 h ([6]; SD, po, p.o. 1 mg/kg) was 3.71 ± 0.79 ng/mL. For the same compound, the concentration at 1 h ([6]; SD, po, p.o. 1 mg/kg) was 3 ± 0.8 ng/mL, the concentration at 2 h ([6]; SD, po, p.o. 1 mg/kg) was 1.65 ± 0.44 ng/mL and the concentration at 4 h ([6]; SD, po, p.o. 1 mg/kg) was 1.02 ± 0.55 ng/mL. The concentration at 6 h ([6]; SD, po, p.o. 1 mg/kg) was 0.63 ± 0.31 ng/mL, the concentration at 8 h ([6]; SD, po, p.o. 1 mg/kg) was 0.63 ± 0.25 ng/mL and the concentration at 12 h ([6]; SD, po, p.o. 1 mg/kg) was 0.56 ± 0.27 ng/mL. For the same compound, the MRT last ([6]; SD, po, p.o. 1 mg/kg) was 3.35 ± 1.27 h, the AUC(0-inf) ([6]; SD, po, p.o. 3 mg/kg) was 39.9 ± 9.81 ng·h/mL and the AUC(0-t) ([6]; SD, po, p.o. 3 mg/kg) was 36.9 ± 9.57 ng·h/mL. For the same compound, the Cmax ([6]; SD, po, p.o. 3 mg/kg) was 19.2 ± 16.4 ng/mL, the Tmax ([6]; SD, po, p.o. 3 mg/kg) was 9 ± 10.2 min and the half-life ([6]; SD, po, p.o. 3 mg/kg) was 2.47 ± 1.54 h. For the same compound, the concentration at 0.083 h ([6]; SD, po, p.o. 3 mg/kg) was 18.9 ± 16.6 ng/mL, the concentration at 0.25 h ([6]; SD, po, p.o. 3 mg/kg) was 9.25 ± 4.57 ng/mL and the concentration at 0.5 h ([6]; SD, po, p.o. 3 mg/kg) was 7.42 ± 3.58 ng/mL. For the same compound, the concentration at 1 h ([6]; SD, po, p.o. 3 mg/kg) was 6.3 ± 3.02 ng/mL, the concentration at 2 h ([6]; SD, po, p.o. 3 mg/kg) was 4.07 ± 0.73 ng/mL and the concentration at 4 h ([6]; SD, po, p.o. 3 mg/kg) was 3.5 ± 0.73 ng/mL. The concentration at 6 h ([6]; SD, po, p.o. 3 mg/kg) was 2.35 ± 0.96 ng/mL, the concentration at 8 h ([6]; SD, po, p.o. 3 mg/kg) was 1.95 ± 0.51 ng/mL and the concentration at 12 h ([6]; SD, po, p.o. 3 mg/kg) was 0.84 ± 0.26 ng/mL. The MRT last ([6]; SD, po, p.o. 3 mg/kg) was 4.61 ± 1.49 h, the AUC(0-inf) ([6]; SD, po, p.o. 10 mg/kg) was 107 ± 30.2 ng·h/mL and the AUC(0-t) ([6]; SD, po, p.o. 10 mg/kg) was 104 ± 29.4 ng·h/mL. For the same compound, the Cmax ([6]; SD, po, p.o. 10 mg/kg) was 60.9 ± 44.9 ng/mL, the Tmax ([6]; SD, po, p.o. 10 mg/kg) was 9 ± 10.2 min and the half-life ([6]; SD, po, p.o. 10 mg/kg) was 2.31 ± 1.32 h. For the same compound, the concentration at 0.083 h ([6]; SD, po, p.o. 10 mg/kg) was 60.7 ± 45.1 ng/mL, the concentration at 0.25 h ([6]; SD, po, p.o. 10 mg/kg) was 20.5 ± 8.3 ng/mL and the concentration at 0.5 h ([6]; SD, po, p.o. 10 mg/kg) was 15.9 ± 4.1 ng/mL. The concentration at 1 h ([6]; SD, po, p.o. 10 mg/kg) was 10.2 ± 3.5 ng/mL, the concentration at 2 h ([6]; SD, po, p.o. 10 mg/kg) was 7.1 ± 2.7 ng/mL and the concentration at 4 h ([6]; SD, po, p.o. 10 mg/kg) was 5.63 ± 2.23 ng/mL. For the same compound, the concentration at 6 h ([6]; SD, po, p.o. 10 mg/kg) was 4.39 ± 2.71 ng/mL, the concentration at 8 h ([6]; SD, po, p.o. 10 mg/kg) was 3.61 ± 2.13 ng/mL and the concentration at 12 h ([6]; SD, po, p.o. 10 mg/kg) was 3.18 ± 1.43 ng/mL. The concentration at 24 h ([6]; SD, po, p.o. 10 mg/kg, 24 h) was 1.04 ± 0.66 ng/mL, the MRT last ([6]; SD, po, p.o. 10 mg/kg) was 7.73 ± 2.79 h and the bioavailability ([6]; SD, po, printed in the p.o. 3 mg/kg column, read-out: F) was 5.59%. For the same compound, the bioavailability ([6]; Sprague-Dawley (SD), oral administration (1–10 mg/kg), read-out: bioavailability) was about 6% and the fraction unbound at 4 h, 1 µM [7] was 0.447.
